Settings: Gas, Vibrating wire viscometry

FS(F)(F)(F)(F)F [sulfur hexafluoride]
Settings	viscosity [mPa·s]
321 K, 1893.8 kPa	0.01729
321 K, 1930.7 kPa	0.01734
321 K, 2004.9 kPa	0.01743
321 K, 2041.9 kPa	0.01747
321 K, 2120.4 kPa	0.01758
321 K, 2221.3 kPa	0.01772
321 K, 2270.3 kPa	0.0178
321 K, 2332.7 kPa	0.0179
321 K, 2373.2 kPa	0.01797
321 K, 2451.3 kPa	0.01812
321 K, 2534.7 kPa	0.01826
321 K, 2581.9 kPa	0.01837
321 K, 2629.5 kPa	0.01846
321 K, 2688.1 kPa	0.0186
321 K, 2803.9 kPa	0.01888
321 K, 2873.5 kPa	0.01908
321 K, 2959.1 kPa	0.01932
321 K, 3050 kPa	0.01963
321 K, 3136.6 kPa	0.01995
321 K, 3229.6 kPa	0.02035
321 K, 3282 kPa	0.0206
321 K, 3384.4 kPa	0.02117
321 K, 3445.9 kPa	0.02156
321 K, 3498.8 kPa	0.02195
321 K, 3558.3 kPa	0.02244
321 K, 3606.1 kPa	0.02294
321 K, 3651.4 kPa	0.02346
321 K, 3695.6 kPa	0.02407
321 K, 3729.2 kPa	0.02462
321 K, 3765.4 kPa	0.0253
321 K, 3793.6 kPa	0.026
321 K, 3819.6 kPa	0.02674
321 K, 3858.5 kPa	0.02827
321 K, 3887.8 kPa	0.0299
321 K, 3899.4 kPa	0.03104
321 K, 3910.1 kPa	0.03218
321 K, 3918.4 kPa	0.03355
321 K, 3926.6 kPa	0.03481
321 K, 3933.3 kPa	0.03615
321 K, 3938.4 kPa	0.03743
321 K, 3945.7 kPa	0.03995
321 K, 3950.6 kPa	0.04131
321 K, 3955.4 kPa	0.04272
321 K, 3961 kPa	0.04435
321 K, 3968.8 kPa	0.04638
321 K, 3977 kPa	0.04813
321 K, 3988.3 kPa	0.05018
321 K, 4001.1 kPa	0.05214
321 K, 4020.8 kPa	0.05448
321 K, 4046.8 kPa	0.05683
321 K, 4077.1 kPa	0.05902
321 K, 4112.9 kPa	0.06125
321 K, 4160 kPa	0.0635
321 K, 4223.8 kPa	0.06599
321 K, 4349.4 kPa	0.07
321 K, 4465.5 kPa	0.07305
321 K, 4601.3 kPa	0.07606
321 K, 4740.5 kPa	0.07859
321 K, 4879.1 kPa	0.08093
321 K, 5134 kPa	0.08474
321 K, 5554.1 kPa	0.09001
321 K, 5938 kPa	0.09416
321 K, 6388.7 kPa	0.09845
321 K, 7256.2 kPa	0.1057
321 K, 7905.1 kPa	0.1105
321 K, 8647.5 kPa	0.1154
321 K, 9548.1 kPa	0.1212
321 K, 10352 kPa	0.1258
321 K, 11075 kPa	0.1297
333.15 K, 91.55 kPa	0.01681
333.15 K, 113.58 kPa	0.01682
333.15 K, 142.52 kPa	0.01682
333.15 K, 172.42 kPa	0.01683
333.15 K, 198.48 kPa	0.01684
333.15 K, 218.78 kPa	0.01685
333.15 K, 243.22 kPa	0.01685
333.15 K, 275.2 kPa	0.01686
333.15 K, 294.03 kPa	0.01686
333.15 K, 319.41 kPa	0.01687
333.15 K, 350.89 kPa	0.01688
333.15 K, 378.94 kPa	0.01689
333.15 K, 416.93 kPa	0.0169
333.15 K, 443.4 kPa	0.01691
333.15 K, 479.64 kPa	0.01692
333.15 K, 506.6 kPa	0.01693
333.15 K, 547.64 kPa	0.01694
333.15 K, 590.65 kPa	0.01695
333.15 K, 636.15 kPa	0.01697
333.15 K, 671.18 kPa	0.01698
333.15 K, 717.74 kPa	0.017
333.15 K, 772.31 kPa	0.01703
333.15 K, 837.79 kPa	0.01705
333.15 K, 887.92 kPa	0.01708
333.15 K, 946.43 kPa	0.0171
333.15 K, 1025.7 kPa	0.01715
333.15 K, 1092.5 kPa	0.01718
333.15 K, 1167.4 kPa	0.01723
333.15 K, 1233.2 kPa	0.01727
333.15 K, 1307.8 kPa	0.01732
333.15 K, 1366.9 kPa	0.01737
333.15 K, 1419.7 kPa	0.0174
333.15 K, 1502.8 kPa	0.01746
333.15 K, 1566.4 kPa	0.01751
333.15 K, 1629.7 kPa	0.01757
333.15 K, 1705.8 kPa	0.01763
333.15 K, 1772.9 kPa	0.01769
333.15 K, 1853.5 kPa	0.01778
333.15 K, 1917.4 kPa	0.01783
333.15 K, 1967 kPa	0.0179
333.15 K, 2025.7 kPa	0.01795
333.15 K, 2294.7 kPa	0.01828
333.15 K, 2427.7 kPa	0.01848
333.15 K, 2519.2 kPa	0.01862
333.15 K, 2631.9 kPa	0.0188
333.15 K, 2766.3 kPa	0.01904
333.15 K, 2872 kPa	0.01925
333.15 K, 3008.3 kPa	0.01955
333.15 K, 3089.4 kPa	0.01973
333.15 K, 3195.2 kPa	0.02001
333.15 K, 3306.1 kPa	0.02032
333.15 K, 3398.7 kPa	0.0206
333.15 K, 3504 kPa	0.02097
333.15 K, 3605.1 kPa	0.02135
333.15 K, 3722 kPa	0.02185
333.15 K, 3815.4 kPa	0.02229
333.15 K, 3932.1 kPa	0.02291
333.15 K, 4050.8 kPa	0.0237
333.15 K, 4148.2 kPa	0.02445
333.15 K, 4239.9 kPa	0.02524
333.15 K, 4328.2 kPa	0.02616
333.15 K, 4406.9 kPa	0.02715
333.15 K, 4479.7 kPa	0.02819
333.15 K, 4549.6 kPa	0.02938
333.15 K, 4612.3 kPa	0.03054
333.15 K, 4671.8 kPa	0.03186
333.15 K, 4725.8 kPa	0.03331
333.15 K, 4776.6 kPa	0.03476
333.15 K, 4828.1 kPa	0.03629
333.15 K, 4880.1 kPa	0.03801
333.15 K, 4933.2 kPa	0.03982
333.15 K, 4991.6 kPa	0.0419
333.15 K, 5049 kPa	0.04395
333.15 K, 5109.4 kPa	0.04603
333.15 K, 5178.8 kPa	0.04833
333.15 K, 5254.9 kPa	0.05072
333.15 K, 5343.6 kPa	0.05331
333.15 K, 5447.5 kPa	0.0561
333.15 K, 5567.4 kPa	0.05883
333.15 K, 5709.9 kPa	0.06196
333.15 K, 5869.5 kPa	0.06483
333.15 K, 6098.2 kPa	0.0687
333.15 K, 6338.2 kPa	0.07217
333.15 K, 6627.7 kPa	0.07584
333.15 K, 6950.6 kPa	0.07952
333.15 K, 7378.3 kPa	0.08395
333.15 K, 7900 kPa	0.08869
333.15 K, 8519.8 kPa	0.09355
333.15 K, 9106.8 kPa	0.09795
333.15 K, 9802 kPa	0.1027
333.15 K, 10465 kPa	0.1067
333.15 K, 11412 kPa	0.1122
333.15 K, 12565 kPa	0.1183
350 K, 64.67 kPa	0.01753
350 K, 96.54 kPa	0.01755
350 K, 117.61 kPa	0.01755
350 K, 143.77 kPa	0.01756
350 K, 170.68 kPa	0.01756
350 K, 204.56 kPa	0.01758
350 K, 238.01 kPa	0.01759

Source: the NIST ThermoML archive (doi:10.1021/je049612f)
